Assays:
[1] = system: plasma active GLP-1 level; experiment: Plasma active GLP-1 level in glucose-loaded normal (DPP4-positive) rats, Example 4; format: in vivo, rat; conditions: Table 6, 10 mg/kg oral, DPP4-positive male Fisher rats, mean ± SEM, n=5 or 6
Description: Each test compound was suspended in a solution of 0.5% carboxymethyl cellulose containing 0.2% Tween 80 at the doses indicated in Table 4, 5 or 6, and administered to the test group orally at a volume of 5 mL/kg. The vehicle control group was orally administered a solution of 0.5% carboxymethyl cellulose containing 0.2% Tween 80 at a volume of 5 mL/kg. Just after the administration of the compound or vehicle, a glucose solution (2 g/kg/5 mL) was given orally.
Blood was collected from the caudal vein of an unanesthetized rat at appropriate time described in the table. Plasma active GLP-1 level was determined by using RAT ENDOCRINE LINCOplex KIT (LINCO Research).

[2] = system: plasma active GLP-1 level; experiment: Plasma active GLP-1 level in glucose-loaded diabetic mice; format: in vivo; conditions: male db/db mice, mean ± SEM, n=8
Description: Male BKS.Cg−+Lepr^db/+Lepr^db/Jcl mice; an Animal Model of Type 2 Diabetes (Purchased from CLEA Japan, Inc.)
(§1) Each test compound was suspended in a solution of 0.5% carboxymethyl cellulose containing 0.2% Tween 80 at the doses indicated in Table 3, and administered to the test group orally at a volume of 5 mL/kg. The vehicle control group was orally administered a solution of 0.5% carboxymethyl cellulose containing 0.2% Tween 80 at a volume of 5 mL/kg. Just after the administration of the compound or vehicle, a glucose solution (2 g/kg/5 mL) was given orally.
Blood was collected from the caudal vein of an unanesthetized mice just before and 0.5, 1, and 2 hours after glucose loading. Plasma active GLP-1 level was determined by using RAT ENDOCRINE LINCOplex KIT (LINCO Research).

[3] = system: plasma active GLP-1 level; experiment: Plasma active GLP-1 level in glucose-loaded normal (DPP4-positive) rats, Example 2; format: in vivo, rat; conditions: DPP4-positive male Fisher rats, mean ± SEM, n=6
Description: DPP4-positive male Fisher rats (purchased from Japan SLC, Inc.)
as §1, with “2,” for “3,”
Blood was collected from the caudal vein of an unanesthetized rat just before and 0.2, 0.5, 1, and 2 hours after glucose loading. Plasma active GLP-1 level was determined by using RAT ENDOCRINE LINCOplex KIT (LINCO Research).

[4] = system: plasma active GLP-1 level; experiment: Plasma active GLP-1 level in glucose-loaded DPP4-deficient rats; format: in vivo, rat; conditions: for GLP-1 concentration at each time point (hr) after oral administration: DPP4-deficient male Fisher rats, mean ± SEM, n=6
Description: DPP4-deficient male Fisher rats (purchased from Charles River Japan, Inc.)
as §1, with “The” for “Each”, “1,” for “3,”, “ml)” for “mL)”
Blood was collected from the caudal vein of an unanesthetized rat just before and 0.5, 1, and 3 hours after glucose loading. Plasma active GLP-1 level was determined by using RAT ENDOCRINE LINCOplex KIT (LINCO Research).

[5] = 0 hr (just before), 3 mg/kg oral
[6] = 0 hr (just before), 10 mg/kg oral
[7] = 0 hr (just before), 30 mg/kg oral

CN(C)C(=O)[C@H]1CC[C@H](NCC(=O)N2CCC[C@H]2C#N)CC1.O=S(=O)(O)c1ccccc1 (relative stereo) [Compound I, (2S)-2-cyano-1-[trans-4-(dimethylaminocarbonyl)cyclohexylamino]acetylpyrrolidine besylate]
GLP-1 concentration at 2 hr after oral administration [1]: 4.0 ± 0.6 pM

N#C[C@@H]1CCCN1C(=O)CN[C@H]1CC[C@H](C(=O)N2CCOCC2)CC1 (relative stereo) [Compound B, (2S)-2-Cyano-1-[trans-4-(morpholinocarbonyl)cyclohexylamino]acetylpyrrolidine]
GLP-1 concentration at each time point (hr) after oral administration [2, 5]: 18.4 ± 5.1 pM
GLP-1 concentration at each time point (hr) after oral administration ([2]; 0.5 hr, 3 mg/kg oral): 30.0 ± 5.5 pM
GLP-1 concentration at each time point (hr) after oral administration ([2]; 1 hr, 3 mg/kg oral): 46.5 ± 10.1 pM
GLP-1 concentration at each time point (hr) after oral administration ([2]; 2 hr, 3 mg/kg oral): 25.0 ± 4.1 pM
GLP-1 concentration at each time point (hr) after oral administration [3, 5]: 7.2 ± 0.6 pM
GLP-1 concentration at each time point (hr) after oral administration ([3]; 0.2 hr, 3 mg/kg oral): 9.8 ± 0.7 pM
GLP-1 concentration at each time point (hr) after oral administration ([3]; 0.5 hr, 3 mg/kg oral): 9.4 ± 0.4 pM
GLP-1 concentration at each time point (hr) after oral administration ([3]; 1 hr, 3 mg/kg oral): 8.3 ± 0.3 pM
GLP-1 concentration at each time point (hr) after oral administration ([3]; 2 hr, 3 mg/kg oral): 7.9 ± 0.5 pM

OC[C@H]1O[C@@H](c2ccc(Cl)c(Cc3ccc(-c4cccc(F)n4)s3)c2)[C@H](O)[C@@H](O)[C@@H]1O [Compound A, 1-(β-D-glucopyranosyl)-4-chloro-3-[5-(6-fluoro-2-pyridyl)-2-thienylmethyl]benzene]
GLP-1 concentration at each time point (hr) after oral administration [4, 6]: 6.2 ± 1.3 pM
GLP-1 concentration at each time point (hr) after oral administration [4, 7]: 5.3 ± 0.7 pM
GLP-1 concentration at each time point (hr) after oral administration ([4]; 0.5 hr, 10 mg/kg oral): 24.5 ± 4.7 pM
GLP-1 concentration at each time point (hr) after oral administration ([4]; 0.5 hr, 30 mg/kg oral): 24.9 ± 3.8 pM
GLP-1 concentration at each time point (hr) after oral administration ([4]; 1 hr, 10 mg/kg oral): 31.3 ± 7.0 pM
GLP-1 concentration at each time point (hr) after oral administration ([4]; 1 hr, 30 mg/kg oral): 34.1 ± 5.7 pM
GLP-1 concentration at each time point (hr) after oral administration ([4]; 3 hr, 10 mg/kg oral): 21.9 ± 2.4 pM
GLP-1 concentration at each time point (hr) after oral administration ([4]; 3 hr, 30 mg/kg oral): 27.1 ± 2.1 pM
effect on plasma active GLP-1 level (in words) ([4]; DPP4-deficient rats, summary of Table 1): markedly increased
GLP-1 concentration at each time point (hr) after oral administration [2, 6]: 20.3 ± 9.6 pM
GLP-1 concentration at each time point (hr) after oral administration ([2]; 0.5 hr, 10 mg/kg oral): 42.6 ± 13.4 pM
GLP-1 concentration at each time point (hr) after oral administration ([2]; 1 hr, 10 mg/kg oral): 49.4 ± 12.0 pM
GLP-1 concentration at each time point (hr) after oral administration ([2]; 2 hr, 10 mg/kg oral): 30.9 ± 8.2 pM
GLP-1 concentration at each time point (hr) after oral administration [3, 6]: 7.7 ± 0.4 pM
GLP-1 concentration at each time point (hr) after oral administration [3, 7]: 5.9 ± 0.3 pM
GLP-1 concentration at each time point (hr) after oral administration ([3]; 0.2 hr, 10 mg/kg oral): 7.9 ± 0.2 pM
GLP-1 concentration at each time point (hr) after oral administration ([3]; 0.2 hr, 30 mg/kg oral): 7.1 ± 0.3 pM
GLP-1 concentration at each time point (hr) after oral administration ([3]; 0.5 hr, 10 mg/kg oral): 10.2 ± 1.0 pM
GLP-1 concentration at each time point (hr) after oral administration ([3]; 0.5 hr, 30 mg/kg oral): 6.7 ± 0.4 pM
GLP-1 concentration at each time point (hr) after oral administration ([3]; 1 hr, 10 mg/kg oral): 9.5 ± 0.6 pM
GLP-1 concentration at each time point (hr) after oral administration ([3]; 1 hr, 30 mg/kg oral): 7.5 ± 0.9 pM
GLP-1 concentration at each time point (hr) after oral administration ([3]; 2 hr, 10 mg/kg oral): 9.6 ± 0.8 pM
GLP-1 concentration at each time point (hr) after oral administration ([3]; 2 hr, 30 mg/kg oral): 9.0 ± 0.9 pM

— patent US20140371162A1, “COMBINATION THERAPY COMPRISING SGLT INHIBITORS AND DPP4 INHIBITORS” (MITSUBISHI TANABE PHARMA CORPORATION, priority 2008, published 2014)
